# Results reported in patent US10005816B2, “Peptides and their use in food and beverage” (priority 2014, dated 2018).
# Where no end group is shown, it is not given here.
# Assay: Sensory evaluation of peptide additive in coffee brew by five expert panelists (Example 4)
# Settings: 40 ppm additive in coffee brew; FOLGERS Classic Decaf roast and ground coffee; versus control brew without additive
# Procedure: Coffee brews were prepared using a commercially available roast and ground coffee product (FOLGERS® brand Classic Decaf coffee) using a standard automatic drip coffee brewer (i.e., MR. COFFEE®). The brewing process was carried out as instructed on the coffee package. Each single peptide in Example 1 and peptide compositions in Examples 2 and 3 were mixed into to the coffee brew. Five expert panelists evaluated the effect of peptide additive on coffee flavor profile.
row,Substance,Sensory Evaluation
1,EELLPE [Peptide (Ie)],"Stronger than control, fuller"
2,LACHLL [Peptide (Id)],"Strange non-coffee taste charcoal,"
3,Pro-Pro-Thr-Leu-Leu (PPTLL) [Peptide (Ic)],"Stronger than control, bitter"
4,Pro-Thr-Pro-Leu-Leu (PTPLL) [Peptide (Ia)],"Stronger than control, very bitter"
